In patent US11744859B2, “Compositions and methods for parenteral administration of therapeutic agents” (EpicentRx, Inc., priority 2017, dated 2023):

How the values were obtained:
[1] = tested on: human colorectal HT-29 cancer cells; details: 5 mg/kg, twice a week for three weeks
Description: In this example, human colorectal HT-29 cancer cells will be xenografted to mice.

[2] = in vivo; cited from earlier work
[3] = tested on: sepsis model mice (CLP); experiment: CLP sepsis model mice: survival and live bacterial count in blood; assay type: in vivo, BALB/c mice; details: 24 hour blood samples from septic mice; 25 mg/kg
Method: Sepsis model: twenty BALB/c mice (Jackson Labs; 6-8 weeks) were made septic by CLP. Briefly, mice were anesthetized isoflurane (5% induction and 2% maintenance), and subjected to laparotomy. The cecum was exteriorized and ligated distal to the ileocecal valve without causing intestinal obstruction. The cecum was then punctured twice with either a 21 gauge needle, and stool was gently extruded. Lastly, the abdomen was closed 1 mL of saline was injected.

[4] = tested on: MCF7/Taxol (Taxol resistance line); experiment: orthotopically implanted MCF7/Taxol human breast carcinoma in mice, tumor volume; assay type: in vivo, athymic mice (nu/nu); details: either 10 mg/kg or 30 mg/kg, twice per week
Method: (§1) 6-week-old-female athymic mice (nu/nu) were implanted orthotopically with 1×10^7 cells/mL human breast carcinoma cells MCF7 or MCF/Taxol (Taxol resistance line) into their mammary fat pad. […] The treatments started when tumors were 100 mm^3. The paclitaxel blood mixes were prepared by incubating whole blood with paclitaxel and an anticoagulant (CPD) for 30 minutes.

[5] = tested on: human breast carcinoma cells MCF7; experiment: orthotopically implanted MCF7 human breast carcinoma in mice, tumor volume; assay type: in vivo, athymic mice (nu/nu); details: either 10 mg/kg or 30 mg/kg, twice per week
Method: as §1

[6] = tested on: human HT-29 colorectal cancer cells; experiment: xenografted HT-29 colorectal tumor in mice, tumor volume; assay type: in vivo; details: 12 mg/kg, one time
Method: FIG. 5 depicts activity of control, oxaliplatin (L-OHP, 12 mg/kg), and whole blood mixed with oxaliplatin (Blood-mix-L-OHP, either 12 mg/kg or 24 mg/kg) in treating xenografted HT-29 colorectal tumor, as measured by tumor volume over time (0-40 days) after each treatment.

[7] = tested on: human lung cancer cells A549; experiment: xenografted A549 lung tumor in mice, tumor volume; assay type: in vivo; details: 50 mg/kg, twice in one week
Method: FIG. 1 depicts activity of control, carboplatin (Carbo, 50 mg/kg), and whole blood mixed with carboplatin (Blood-mix-Carbo, either 50 mg/kg or 100 mg/kg) in treating xenografted A549 lung tumor, as measured by tumor volume after each treatment.
In this example, human lung cancer cells A549 were xenografted to mice.

For `COc1cccc2c1C(=O)c1c(O)c3c(c(O)c1C2=O)C[C@@](O)(C(=O)CO)C[C@@H]3O[C@H]1C[C@H](N)[C@H](O)[C@H](C)O1` [doxorubicin], the “tumor volume compared to control” value [1] was “tumor volume is reduced”.

For `O=P1(N(CCCl)CCCl)NCCCO1` (stereo not drawn) [Cyclophosphamide], the “elimination time of the drug” value [2] is listed as 3 to 12 h.

For `O=P1(NCCCl)OCCCN1CCCl` (stereo not drawn) [ifosfamide], the “elimination time of the drug” value [2] is listed as 7 to 15 h.

Work on `C[C@@H](O)[C@H]1C(=O)N2C(C(=O)O)=C(SCCN=CN)C[C@H]12` [imipenem] yielded a live bacterial count [3] of 7.4±0.45 log CFU/mL.

For `CC[C@@]1(O)C(=O)OCc2c1cc1n(c2=O)Cc2cc3c(CN(C)C)c(O)ccc3nc2-1` [Topotecan], the “elimination time of the drug” value [2] is given as 2 to 3 h.

With `CC(=O)O[C@H]1C(=O)[C@@]2(C)[C@H]([C@H](OC(=O)c3ccccc3)[C@]3(O)C[C@H](OC(=O)[C@H](O)[C@@H](NC(=O)c4ccccc4)c4ccccc4)C(C)=C1C3(C)C)[C@]1(OC(C)=O)CO[C@@H]1C[C@@H]2O` [paclitaxel] the “tumor volume compared to control” value [4] was “tumor volume was reduced” and the “tumor volume compared to control” value [5] was “tumor volume was reduced”.

In the case of `O=C1[O][Pt]2([NH][C@@H]3CCCC[C@H]3[NH]2)[O]C1=O` [oxaliplatin], the “tumor volume compared to control” value [6] is reported as “tumor volume was reduced”.

In the case of `N.N.O=C([O-])C1(C(=O)[O-])CCC1.[Pt+2]` [carboplatin], the “tumor volume compared to control” value [7] is reported as “tumor volume was reduced”.
